What all share (assay): DTP human tumour cell line panel, 48 h
Test [1] concerns MDA-N.
For test [2], the system named is DMS 273 small cell lung.
For test [3], the system named is LXFL 529 NSCLC.
Test [4] deals with DLD-1 colon.
The subject of test [5] is RXF-631 renal.
For test [6], the system named is HOP-18 NSCLC.
For test [7], the system named is KM20L2 colon.
Test [8] concerns XF 498 CNS.
Test [9] concerns M19-MEL melanoma.

Molecules are shown by their SMILES. Several values for one entry are separate records, joined by “and”; a condition that tells them apart may be missing. Identical values can stand only once.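 Exposure lasted 48 hours, with cells grown in 96-well plates and compounds tested at five concentrations. At the GI50, growth is halved. The concentration for full growth arrest is given as TGI.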

In the case of `CC(C)(C)[OH+][O-].[O-]c1ccc(Cl)cc1C=Nc1ccc(Cl)cc1[O-].[O]=[V]`, in [1], the GI50 is 7.92 µM and the TGI was greater than 100 µM.
As to `CC(C)(C)[Si](C)(C)OCC1CCC(n2cnc3c(NC(=O)c4ccccc4)ncnc32)O1` (centres undefined), in [1], the TGI worked out at 30.9 µM.
In [1], `Cc1ccc(NC(c2ccccc2)c2ccc3cccnc3c2O)cc1` (centres undefined) yielded a TGI of 17.7 µM.
Consider `COc1cc(Nc2cnc3cc(C(F)(F)F)ccc3n2)cc(OC)c1OC`, for which the concentration for total growth inhibition (TGI) in test [2], in test [3], in test [4], in test [5], in test [6] and in test [7] was greater than 100 µM in each case. Besides, the TGI in [8] and in [9] was greater than 100 µM throughout.
With `CCCc1c2c([nH]c(=O)c1C)C(=O)c1[nH]c(=O)c(C)c(CCC)c1C2=O`, the figures for the concentration for total growth inhibition (TGI) in test [3], in test [6] and in [9] were greater than 100 µM, greater than 100 µM and 9.52 µM, respectively.
As for `CCCCCCCCCCCCCS(=O)(=O)O`, the TGI in [3], in [4], in test [5], in test [6], in test [7] and in [8] was greater than 100 µM in each case. The molecule further returned a TGI in test [9] greater than 100 µM.
`C[Si](C)(C)C#CCO[Si](C)(C)C` displayed a TGI in test [1] greater than 100 µM.
`O=C(O)c1ccc(NC(=O)C2C(=O)C(=O)N(c3ccc(C(=O)O)cc3)C2=O)cc1` (centres undefined): the TGI in test [2], in test [4], in test [7], in [8] and in test [9] was greater than 100 µM throughout.
`O=C1OC(c2ccco2)=N/C1=C\c1ccc(Cl)c(Cl)c1` had a TGI in [1] greater than 100 µM.
For the molecule `CCN(CC)CCCN(c1cc(OC)cc2nccnc12)S(=O)(=O)c1ccc(C)cc1`, the TGI in test [2], in [3], in test [4], in [5], in test [6] and in test [7] was greater than 100 µM in each case. The TGI in test [8] and in test [9] was greater than 100 µM each time.
Regarding `O=C1C2C(C(=O)N1O)N(Cc1ccccc1)C(=O)N2Cc1ccccc1` (centres undefined), the TGI in [3], in test [4], in test [7], in [8] and in test [9] was greater than 100 µM each time.
As for `CC[C@@H]1C[C@@H]2CN3CCc4c([nH]c5ccc(OC)cc45)C(COC(=O)c4ccc(OC)c(OC)c4)(C2)C13`, the TGI in test [3] is 35.1 µM; in test [6], greater than 100 µM; in test [7], 74.3 µM; in test [8], 46.1 µM; in test [9] it was greater than 100 µM.
As to `C/C(=N\NC(=S)N1CCCCCC1)c1nccnc1C`, the TGI in test [2] was 11.4 µM; in [3], greater than 100 µM; in [4] it was greater than 100 µM; in test [6], 76.8 µM; in test [7], greater than 100 µM; in test [8], 9.89 µM. In test [9], this molecule returned a total growth inhibition concentration (TGI) of 15.6 µM.
On to `COc1nc2c(OC)cccc2c(OC)c1C=O`, for which the TGI in test [2], in [6], in [7], in test [8] and in test [9] was greater than 100 µM in each case.
`O=C(Nc1ccc(Cl)c(C(F)(F)F)c1)C(=O)C(C(=O)/C=C/c1ccccc1)C1OC(=O)c2ccccc21` (centres undefined): the TGI in [2], in test [3], in [4], in test [6], in test [7] and in test [8] was greater than 100 µM in each case. In test [9], this molecule returned a TGI greater than 100 µM.
With `CC(C)C(C(=O)O)N(CC1(O)OCC(O)C(O)C1O)N=O` (centres undefined), the TGI in test [2], in test [3], in [4], in test [5], in test [7] and in test [8] was greater than 100 µM each time. In addition, the TGI in [9] was greater than 100 µM.
For the molecule `O=C1c2ccccc2-c2c1c1ccccc1c(=O)n2Cc1ccco1`, the concentration for total growth inhibition (TGI) in test [1] is greater than 100 µM.
Take `CN/N=C(/Cc1occc(=O)c1O)C(=O)Nc1ccc(C)c(C)c1`: the concentration for total growth inhibition (TGI) in test [3], in [7] and in test [9] was greater than 100 µM each time.
Consider `Cc1ccc(S(=O)(=O)N/N=C(\CCN2CCCC2)CC(c2ccccc2)c2c(O)c3ccccc3oc2=O)cc1` (centres undefined), for which the TGI in [3], in test [4], in test [5], in test [6], in test [7] and in test [8] was greater than 100 µM each time. This molecule gave a TGI in [9] greater than 100 µM.
`CN(N=O)C(=O)Nc1c[nH]c(=O)[nH]c1=O`: the TGI in [1] is greater than 100 µM.
Molecule `Cc1ccc(C)c(NC(=O)C(=O)C(c2cnc3ccc([N+](=O)[O-])cc3n2)[N+](=O)[O-])c1` (centres undefined) showed a TGI in test [1] greater than 100 µM.
For the molecule `CC(=O)N(C)OC(=O)CC(=O)c1ccccc1`, the TGI in [2], in test [3], in [4], in [5], in test [7] and in test [8] was greater than 100 µM each time. The molecule further returned a TGI in test [9] greater than 100 µM.
Turning to `CCN1C(=O)C/C(=C\C(C)=O)Nc2ccccc21`, the TGI is greater than 100 µM in test [2]; greater than 100 µM in [3]; 44.7 µM in [4]; greater than 100 µM in [8]; greater than 100 µM in [9].
`CC(Cn1c2c3ccccc3ccc2c2oc(=O)c3ccccc3c21)N(C)C` (centres undefined): the concentration for total growth inhibition (TGI) in test [3], in test [4], in [7] and in [8] was greater than 100 µM throughout.
Turning to `COC(=O)c1c[nH]cc1CCc1c[nH]cc1C(=O)OC`, the TGI in test [2], in test [3], in test [7], in test [8] and in test [9] was greater than 100 µM each time.
For `O=C(Cc1nc2ccccc2s1)C(=O)Nc1ccc(Cl)cc1`, the TGI in [2], in test [3], in [4], in test [6], in test [7] and in [9] was greater than 100 µM each time.
Regarding `COc1ccc(OCC(=O)O)c2c1CCC(C(C)C)C2=O` (centres undefined), the TGI in test [2], in [3], in test [4], in test [5], in test [6] and in test [7] was greater than 100 µM throughout. The TGI in test [9] is greater than 100 µM.
For `COc1ccc(C(=O)/C=C/c2ccc(O)c(O)c2F)c(OC)c1`, in [1], the GI50 is 2.38 µM; the TGI was 27.2 µM and 25.8 µM.
Take `CCOC(=N)CC(=O)Nc1ccc(Cl)cc1`: the total growth inhibition concentration (TGI) in test [2], in test [3], in test [4], in test [7], in test [8] and in [9] was greater than 100 µM throughout.
On to `Cc1ccc(C)c(NC(=O)C(=O)C2C(=O)C3=C(CC2(C)C)Nc2ccccc2S3)c1` (centres undefined), for which the TGI in test [1] is greater than 100 µM.
On to `COc1cc2oc(=O)cc(C)c2cc1[N+](=O)[O-]`, for which the TGI in test [1] came out at 28.4 µM.
Take `S=CN1CCCCC1`: the TGI in test [1] is greater than 100 µM.
Molecule `CC(O)C1OC(O)C2OC(C)(C)OC12` (centres undefined) came in with a TGI in test [1] greater than 100 µM.
With `O=C(O)c1ccc(S(=O)(=O)c2ccccc2)c([N+](=O)[O-])c1`, the TGI in test [2], in test [3], in [4], in test [6], in test [7] and in test [9] was greater than 100 µM each time.
In the case of `CN(C)CCCCN1CCc2c(n(C)c3ccccc23)C1=O`, the TGI is greater than 100 µM in test [2]; 35.1 µM in test [3]; greater than 100 µM in test [4]; greater than 100 µM in test [6]; 18.3 µM and 34.2 µM in test [1]; greater than 72.9 µM in test [7]. Besides, the TGI was 43.6 µM in test [8] and 69.6 µM in [9].
On to `COC(=O)C1(C)C=C(Nc2ccccc2)C(=O)N1c1ccccc1` (centres undefined), for which the TGI in test [3], in [4], in test [5], in [6], in test [8] and in test [9] was greater than 100 µM each time.
Regarding `COc1ccc2[nH]cc(CCNC(C)=O)c2c1`, the TGI in [2], in test [3], in [4], in test [6], in [7] and in [8] was greater than 100 µM each time. For the same molecule, the TGI in [9] is greater than 100 µM.
Regarding `Cc1cc2c(c3c1c1ccccc1n3C)C(=O)C=CC2=O`, the concentration for total growth inhibition (TGI) in test [2] was found to be 55.9 µM; in test [3] it was 16.7 µM; in [4], 20.4 µM; in [1], 62.5 µM; in [8], 37.9 µM.

Source of the values: PubChem BioAssay (NCI).
